We go through one compound from patent publication US20130196050A1, “SALTY TASTE ENHANCER” (AJINOMOTO CO., INC., priority 2010, published 2013).

In the test the test system is salty taste. In words: Sensory evaluation of salty taste-enhancing activity (quantitative sensory evaluation test). It is filed as in vivo, panelists. On the procedure: The strength of the salty taste enhancing activity of the compound of Example 35 was examined by a quantitative sensory evaluation test.
The quantitative sensory evaluation test was performed as follows. The strength of the salty taste enhancing activity when the compound of Example 35 as a sample was mixed at 0.00005 to 0.0040 g/dl with distilled water containing sodium chloride (0.5 g/dl) was measured. Distilled water containing sodium chloride at 0.55 g/dl, 0.60 g/dl, 0.65 g/dl was used as a comparison target. Using a linear measurement method, the corresponding marks were put down as positions in the straight lines showing the sodium chloride concentrations of 1.0 time (0.50 g/dl), 1.1 times (0.55 g/dl), 1.2 times (0.60 g/dl), 1.3 times (0.65 g/dl). For sensory marks, the positions put down by the panelists were measured, averaged and shown as the salty taste enhancement ratio (times) wherein n=5. […] The “initial taste” is the evaluation of the strength of the salty taste for 2 seconds after placing in the mouth, and the “middle and after taste” is a combination of middle taste and after taste, which is the evaluation of the strength of the salty taste after 2 seconds from placing in the mouth.

The mark [1] stands for this setting: sensory evaluation FIG. 2 compared with FIG. 3.

As for `O=C(NCCc1c[nH]c2ccc(O)cc12)c1c(O)cccc1O` [Example 35, 2,6-dihydroxy-N-(2-(5-hydroxy-1H-indol-3-yl)ethyl)benzamide], the “salty taste enhancing activity” value (0.00005 to 0.0040 g/dl in distilled water containing sodium chloride 0.5 g/dl, n=5, FIG. 2) is on record as “has a salty taste enhancing activity”. Under setting [1], the “concentration region in which salty taste enhancing effect and ENaC activation current began to show” value is ≤ 0.0001 g/dL; the “concentration region in which salty taste enhancing effect and ENaC activation current reach plateau” value is given as “exceeding 0.0010 g/dl”.
